Where “and” joins values, the source holds several entries; their conditions need not be identical. Equal values may be shown once.
Assays:
[1] = Pharmacokinetics of oral nafamostat mesylate solution in healthy male and female subjects; type: in vivo, human; conditions: human, oral, 200 mg dose level, individual subjects
Experimental: Part 1: Single Ascending Dose Study. Male and female subjects aged 18 - 70 were administered a single dose of 50 mg nafamostat mesylate on day 1, 100 mg nafamostat mesylate on day 3 or 4, and 200 mg nafamostat mesylate on day 5, 6, or 7. Nafamostat mesylate was administered in the form of an oral solution. […]
Part 2: Multiple Ascending Dose Study. Subjects were divided into 2 cohorts. Cohort 1 received an oral solution of 100 mg/mL nafamostat mesylate twice a day for 5 days with pharmacokinetic evaluations on each day. […] Safety evaluations continued for 48 hours after the last dose. After review and evidence of safety, Cohort 2 received an oral solution of 200 mg/mL nafamostat mesylate twice a day for 5 days with pharmacokinetic evaluations on each day. […] Safety evaluations continued for 48 hours after the last dose.
Part 3: Single Fixed Dose Administered Twice Daily for 5 Days. Six subjects, different than the subjects from Parts 1 and 2, received an oral solution of 200 mg/mL nafamostat mesylate twice a day for 5 days. Blood samples were obtained at pre-dose (0 hr.) and at 0.5, 1, 2, 3, 4, 6, and 8 hours after the first dose on Day 1 and again after the first dose on Day 5. […]
Oral solutions received by each subject were prepared by dissolving nafamostat mesylate in about 100 mL of EMETROL®/water and provided at a volume to deliver the indicated dosage. There was no placebo formulation.
Nafamostat pharmacokinetics was evaluated at the 200 mg dose levels.

SD rats [2] = experiment: Pilot repeat-dose oral study in male SD rats (5 days); type: in vivo; conditions: 1000 mg/kg/day PO for 5 days
Experimental: A pilot, non-GLP repeat-dose study was performed in which nafamostat mesylate (500 or 1000 mg/kg/day PO) was administered to 6 male SD rats per group for 5 days. […] One animal had petechiae on the lower third of the colon. […] Death in 2 of the animals followed seizure activity at about 1 h post-dose.

SD rats [3] = experiment: Single dose oral tolerability in SD rats (dose range-finding); type: in vivo
Text: Oral Tolerability in Rats: The single dose tolerability to oral nafamostat was studied in SD rats in a non-GLP pilot dose range-finding study. […] All other animals survived to 7 days and had no abnormalities at necropsy.

hERG K+ channel = hERG K+ channel (Homo sapiens, UniProt Q12809); experiment: cell-based; conditions: human, 50 µM
Sequence of hERG K+ channel (Q12809 whole entry): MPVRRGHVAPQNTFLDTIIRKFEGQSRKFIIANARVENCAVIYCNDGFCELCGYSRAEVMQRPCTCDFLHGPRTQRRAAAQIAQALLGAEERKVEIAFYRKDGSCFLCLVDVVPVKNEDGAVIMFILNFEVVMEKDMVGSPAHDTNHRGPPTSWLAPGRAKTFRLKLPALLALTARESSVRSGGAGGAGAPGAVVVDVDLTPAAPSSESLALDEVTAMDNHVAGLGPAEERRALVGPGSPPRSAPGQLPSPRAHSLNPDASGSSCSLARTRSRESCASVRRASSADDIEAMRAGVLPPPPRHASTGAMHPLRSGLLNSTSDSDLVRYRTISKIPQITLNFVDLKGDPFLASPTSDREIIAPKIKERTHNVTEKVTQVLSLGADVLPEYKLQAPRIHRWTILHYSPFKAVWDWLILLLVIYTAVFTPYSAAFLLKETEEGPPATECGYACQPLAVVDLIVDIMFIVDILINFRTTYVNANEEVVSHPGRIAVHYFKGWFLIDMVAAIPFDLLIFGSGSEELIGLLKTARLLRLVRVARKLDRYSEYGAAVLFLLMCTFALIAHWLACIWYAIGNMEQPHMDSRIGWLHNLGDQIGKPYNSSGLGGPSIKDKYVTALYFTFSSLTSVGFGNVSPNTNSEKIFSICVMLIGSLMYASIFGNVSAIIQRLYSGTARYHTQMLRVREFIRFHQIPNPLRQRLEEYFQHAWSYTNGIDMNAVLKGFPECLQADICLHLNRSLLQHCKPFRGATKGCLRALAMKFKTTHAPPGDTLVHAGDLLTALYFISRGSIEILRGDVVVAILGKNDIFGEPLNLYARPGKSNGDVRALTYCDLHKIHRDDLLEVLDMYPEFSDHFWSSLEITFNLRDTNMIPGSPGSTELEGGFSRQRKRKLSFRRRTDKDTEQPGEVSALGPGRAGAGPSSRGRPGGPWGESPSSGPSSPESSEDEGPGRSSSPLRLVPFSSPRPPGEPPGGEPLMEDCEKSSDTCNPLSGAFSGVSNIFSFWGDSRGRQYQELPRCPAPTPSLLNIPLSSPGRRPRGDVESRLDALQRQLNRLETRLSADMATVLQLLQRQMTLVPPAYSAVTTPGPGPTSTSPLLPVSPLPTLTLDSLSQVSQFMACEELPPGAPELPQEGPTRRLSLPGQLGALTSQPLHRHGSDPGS
Experimental: Effects of nafamostat in an hERG assay: In an in vitro non-GLP screening study, effects of nafamostat on the hERG K^+ channel currents were evaluated in voltage-clamped human embryonic kidney cells at room temperature. […] A full ICH-Compliant hERG study and in vivo cardiovascular safety pharmacology study is be performed as part of the IND-enabling program.

CS(=O)(=O)O.CS(=O)(=O)O.N=C(N)Nc1ccc(C(=O)Oc2ccc3cc(C(=N)N)ccc3c2)cc1 [nafamostat mesylate, 6-amidino-2-naphthyl p-guanidinobenzoate dimethanesulfonate]
concentration at 8 h ([1]; both sexes, blood, Day 1, 8 h post-dose): < 0.1 ng/mL
concentration at 12 h ([1]; both sexes, blood, Day 1, 12 h post-dose): < 0.1 ng/mL
NM ([1]; Day 1, 0 h post-dose): < 0.100 ng/mL
NM ([1]; Day 1, 0.5 h post-dose): < 0.100 ng/mL
NM ([1]; Day 1, 1 h post-dose, listed as NM, dimethanesulfonate): < 0.100 ng/mL (4×) and 0.125 ng/mL
NM ([1]; Day 1, 2 h post-dose): < 0.100 ng/mL
NM ([1]; Day 1, 3 h post-dose): < 0.100 ng/mL
NM ([1]; Day 1, 4 h post-dose): < 0.100 ng/mL
NM ([1]; Day 1, 6 h post-dose): < 0.100 ng/mL
NM ([1]; Day 1, 8 h post-dose): < 0.100 ng/mL
NM ([1]; Day 1, 12 h post-dose): < 0.100 ng/mL
NM ([1]; Day 2, 0 h post-dose): < 0.100 ng/mL
NM ([1]; Day 2, 0.5 h post-dose): < 0.100 ng/mL
NM ([1]; Day 2, 1 h post-dose): < 0.100 ng/mL
NM ([1]; Day 2, 2 h post-dose): < 0.100 ng/mL
NM ([1]; Day 2, 3 h post-dose): < 0.100 ng/mL
NM ([1]; Day 2, 4 h post-dose): < 0.100 ng/mL
NM ([1]; Day 2, 6 h post-dose): < 0.100 ng/mL
NM ([1]; Day 2, 8 h post-dose): < 0.100 ng/mL
NM ([1]; Day 2, 12 h post-dose): < 0.100 ng/mL
NM ([1]; Day 2, 16 h post-dose): < 0.100 ng/mL
NM ([1]; Day 3, 0 h post-dose): < 0.100 ng/mL
NM ([1]; Day 3, 4 h post-dose, listed as NM, dimethanesulfonate): < 0.100 ng/mL (2×) and 0.101 ng/mL
NM ([1]; Day 3, 8 h post-dose): < 0.100 ng/mL
NM ([1]; Day 3, 12 h post-dose): < 0.100 ng/mL
NM ([1]; Day 3, 16 h post-dose): < 0.100 ng/mL
NM ([1]; Day 4, 0 h post-dose, listed as NM, dimethanesulfonate): < 0.100 ng/mL
NM ([1]; Day 4, 4 h post-dose): < 0.100 ng/mL
necropsy finding in animals that died (SD rats [2]): fluid filled stomach at necropsy
mortality (SD rats [2]; 6 male SD rats): Four of 6 animals receiving 1000 mg/kg/day died by day 5
mortality (SD rats [3]; 1000 mg/kg female dose group, stomach perforations at necropsy indicate dosing misadministration): 2 of 3 animals died at 48 hours
single dose oral tolerability (SD rats [3]; both, SD, rat, in vivo, po, 7 days): ≥ 1000 mg/kg
inhibition of hERG potassium currents (hERG K+ channel): approximately 24%
